Experimental data from patent US8592581B2, “Trisubstituted purine derivatives” (Cyclacel Limited, priority 2007, dated 2013).

Tests used:
CDK2/cyclin E = CDK2/cyclin E (Homo sapiens (Human), UniProt P24941); test: In-vitro recombinant kinase assay CDK2/cyclin E; format: biochemical; conditions: Table 2; average of duplicate points; read-out: CDK2/Cyclin E Average IC50
Experimental: (§1) To evaluate the in-vitro kinase potency of the compounds, they were screened against CDK 2 and CDK9. Kinase assays were performed in 96-well plates using recombinant CDK/cyclins generated at Cyclacel. Ltd Dundee, UK. CDK2 and CDK9 assays were performed in a total volume of 25 μl in assay buffer (25 mM b-glycerophosphate, 20 mM MOPS, 5 mM EGTA, 1 mM DTT and 1 mM NaVO3, pH 7.4), into which were added 2-4 μg of active enzyme with appropriate substrates (purified histone H1 for CDK2/cyclin E, and CDK2/cyclin A, biotinyl-Ahx-(YSPTSPS)4 for CDK9/cyclin T1). […] CDK2 reactions were stopped by addition of 25 μl of 75 mM phosphoric acid, followed by filtration through P81 filterplates (Whatman Polyfiltronics, Kent, UK). For CDK9, the reaction was stopped by addition of 25 μl of 75 mM phosphoric acid, then 5 μl of 10 mg/ml avidin was added to each well and further incubated for 2 min followed by filtration as per CDK2 assay. After washing 3 times with 75 mM orthophosphoric acid, plates were dried, scintillant added and incorporated radioactivity measured in a scintillation counter (TopCount, Packard Instruments, Pangbourne, Berks, UK). Compounds for kinase assay were made up as 10 mM stocks in DMSO and diluted into 10% DMSO in assay buffer.
as §1

CYP2D6 = CYP2D6 (Homo sapiens (Human), UniProt P10635); test: Cytochrome P450 substrate identification (Bactosomes) CYP2D6; format: in vitro ADME; conditions: pH 7.4, 5 μM test compound, up to 45 min, read-out: half life in the presence of CYP2D6
CYP2D6, sequence (P10635 whole entry): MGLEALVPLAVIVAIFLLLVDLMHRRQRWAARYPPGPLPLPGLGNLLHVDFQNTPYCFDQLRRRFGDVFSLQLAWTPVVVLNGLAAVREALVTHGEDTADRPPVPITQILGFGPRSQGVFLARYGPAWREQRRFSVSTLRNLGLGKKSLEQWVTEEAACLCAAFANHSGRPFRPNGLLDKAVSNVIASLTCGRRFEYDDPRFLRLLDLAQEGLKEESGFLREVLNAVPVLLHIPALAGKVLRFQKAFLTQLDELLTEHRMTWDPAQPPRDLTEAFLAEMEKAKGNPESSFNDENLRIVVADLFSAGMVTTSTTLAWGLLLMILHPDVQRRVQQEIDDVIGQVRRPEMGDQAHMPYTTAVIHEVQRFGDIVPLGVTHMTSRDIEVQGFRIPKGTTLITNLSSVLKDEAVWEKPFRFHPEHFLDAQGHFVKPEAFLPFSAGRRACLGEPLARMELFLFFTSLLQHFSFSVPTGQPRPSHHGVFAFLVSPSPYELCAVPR
Experimental: (§2) cDNA expressed human CYP450 enzyme preparations co-expressed with human NADPH cytochrome P450 reductase (Bactosomes™) were supplied by Cypex Ltd. Bactosomes™ (final P450 concentration CYP1A2 100 pmol/mL, CYP2C8 50 pmol/mL, CYP2C9 25 pmol/mL, CYP2C19 100 pmol/mL, CYP2D6 50 pmol/mL and CYP3A4 25 pmol/mL), 0.1M phosphate buffer pH7.4 and test compound (final substrate concentration=5 μM; final DMSO concentration=0.25%) were pre-incubated at 37° C. prior to the addition of NADPH (final concentration=1 mM) to initiate the reaction. Incubations were also performed using control bactosomes (no P450 enzymes present) to reveal any non-enzymatic degradation. The final incubation volume was 25 μL. Compounds known to be metabolised specifically by each CYP450 isoform were used as control compounds.
(§3) Each compound was incubated singly for 0, 5, 15, 30 and 45 min with each CYP isoform. The reactions were stopped by the addition of 50 μL methanol containing internal standard at the appropriate time points. The incubation plates were centrifuged at 2500 rpm for 20 min at 4° C. to precipitate the protein. Following protein precipitation, the sample supernatants were combined in cassettes of up to four compounds and analysed using generic LC-MS/MS conditions.
(§4) The In peak area ratio (which has been corrected for any loss in the incubations with the control bactosomes) was plotted against time and the gradient of the line determined.
(§5) The elimination rate constant (k)=(−gradient)

H2052 = test: Alamar blue cytotoxicity assay H2052; format: cell-based; conditions: Homo sapiens, NCI-H2052; 72 hours; read-out: cellular cytotoxicity IC50 H2052
Experimental: (§6) In order to determine the cellular potency of the compounds, the cytotoxicity of each compound was determined against a range of cell lines. Standard cytotoxicity methods were performed as follows: cells were seeded in 96-well plates appropriately for their doubling time (2-5000 cells per well) in RPMI or DMEM media containing 10% FCS and incubated overnight at 37° C., 5% CO2. The media was removed and 100 μl fresh media containing increasing concentrations of appropriate compound was added and the cells incubated for 72 hours at 37° C., 5% CO2. A 10% stock of alamar blue (Roche, Lewes, United Kingdom) was prepared in medium and 100 μl added to the cells which were incubated for 2 hours. Absorbance was measured on the Wallac Victor 2 1420 multi-label counter at 544-595 nm.

CYP1A = CYP1A (Homo sapiens, UniProt P05177); test: CYP1A inhibition, human liver microsomes, ethoxyresorufin; format: in vitro ADME; conditions: human liver microsomes, probe ethoxyresorufin (0.5 μM), read-out: IC50 (μM) CYP1A
CYP1A, sequence (P05177 2-516 limits assumed): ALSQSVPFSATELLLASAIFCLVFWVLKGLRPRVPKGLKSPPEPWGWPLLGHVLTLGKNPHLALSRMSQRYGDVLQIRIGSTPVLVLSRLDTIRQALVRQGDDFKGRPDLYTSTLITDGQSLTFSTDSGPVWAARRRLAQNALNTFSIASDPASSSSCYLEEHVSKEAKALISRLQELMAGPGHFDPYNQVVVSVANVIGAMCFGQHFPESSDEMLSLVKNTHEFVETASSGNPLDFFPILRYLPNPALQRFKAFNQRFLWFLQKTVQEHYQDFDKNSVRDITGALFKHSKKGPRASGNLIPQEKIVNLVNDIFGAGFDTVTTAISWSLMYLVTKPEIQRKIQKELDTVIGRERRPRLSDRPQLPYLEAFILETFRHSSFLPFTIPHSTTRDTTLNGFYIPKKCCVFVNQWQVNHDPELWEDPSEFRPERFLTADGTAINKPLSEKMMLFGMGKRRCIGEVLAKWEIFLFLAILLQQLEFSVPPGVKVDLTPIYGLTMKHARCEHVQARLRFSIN
Experimental: Six test compound concentrations (0.05, 0.25, 0.5, 2.5, 5, 25 μM in DMSO; final DMSO concentration=0.35%) were incubated with human liver microsomes (0.25 mg/mL) and NADPH (1 mM) in the presence of the probe substrate ethoxyresorufin (0.5 μM) for 5 min at 37° C. The selective CYP1A inhibitor, alpha-naphthoflavone, was screened alongside the test compounds as a positive control.
(§7) For the CYP1A incubations, the reactions were terminated by the addition of methanol, and the formation of the metabolite, resorufin, was monitored by fluorescence (excitation wavelength=535 nm, emission wavelength=595 nm). For the CYP2C9, CYP2C19, CYP2D6, and CYP3A4 incubations, the reactions were terminated by the addition of methanol containing internal standard. The samples were then centrifuged, and the supernatants were combined, for the simultaneous analysis of 4-hydroxytolbutamide, 4-hydroxymephenyloin, dextrorphan, and 1-hydroxymidazolam plus internal standard by LC-MS/MS using generic LC-MS/MS conditions. Formic acid in deionised water (final concentration=0.1%) was added to the final sample prior to analysis.

NCI-H929 = test: Alamar blue cytotoxicity assay NCI-H929; format: cell-based; conditions: Homo sapiens, 72 hours, read-out: cellular cytotoxicity IC50 NCI-H929
Experimental: as §6

CYP2C9 [1] = molecular target: T1, CYP2C9 (Homo sapiens (Human), UniProt P11712); test: CYP2C9 inhibition, human liver microsomes, tolbutamide; format: in vitro ADME
T1 sequence (P11712 whole entry): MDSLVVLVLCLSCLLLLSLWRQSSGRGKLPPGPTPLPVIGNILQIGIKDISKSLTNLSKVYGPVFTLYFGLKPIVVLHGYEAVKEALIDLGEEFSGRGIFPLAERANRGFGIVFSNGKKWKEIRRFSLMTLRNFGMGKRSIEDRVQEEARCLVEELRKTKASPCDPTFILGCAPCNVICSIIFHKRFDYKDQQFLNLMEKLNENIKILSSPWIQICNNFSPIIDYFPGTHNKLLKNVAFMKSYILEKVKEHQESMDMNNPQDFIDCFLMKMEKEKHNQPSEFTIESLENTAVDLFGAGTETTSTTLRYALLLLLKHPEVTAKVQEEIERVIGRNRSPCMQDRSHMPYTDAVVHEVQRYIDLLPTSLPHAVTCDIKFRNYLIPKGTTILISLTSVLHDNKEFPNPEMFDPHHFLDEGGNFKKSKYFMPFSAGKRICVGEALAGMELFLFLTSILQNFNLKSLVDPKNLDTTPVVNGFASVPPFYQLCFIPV
Experimental: Six test compound concentrations (0.05, 0.25, 0.5, 2.5, 5, 25 μM in DMSO; final DMSO concentration=0.25%) were incubated with human liver microsomes (1 mg/mL) and NADPH (1 mM) in the presence of the probe substrate tolbutamide (120 μM) for 60 min at 37° C. The selective CYP2C9 inhibitor, sulphaphenazole, was screened alongside the test compounds as a positive control.
as §7

LoVo = test: Alamar blue cytotoxicity assay LoVo; format: cell-based; conditions: Homo sapiens, 72 hours, read-out: cellular cytotoxicity IC50 LoVo
Experimental: as §6

CYP2C9 [2] = molecular target: T1, CYP2C9; test: Cytochrome P450 substrate identification (Bactosomes) CYP2C9; format: in vitro ADME; conditions: pH 7.4, 5 μM test compound, up to 45 min, read-out: half life in the presence of CYP2C9
Experimental: as §2, §3, §4, §5

A2780 = test: Alamar blue cytotoxicity assay A2780; format: cell-based; conditions: Homo sapiens, 72 hours, read-out: cellular cytotoxicity IC50 A2780
Experimental: as §6

CC[C@H](Nc1nc(NCc2cnc(C)cc2C)c2ncn(C(C)C)c2n1)[C@@H](C)O [Compound [1]]
IC50 (CDK2/cyclin E): 20 nM
half-life at 5 μM (CYP2D6): > 45 min
IC50 (H2052): 290 nM
IC50 at 5 min (CYP1A): > 25 µM
IC50 (NCI-H929): 350 nM
IC50 (CYP2C9 [1]): 23.8 µM
IC50 (LoVo): 700 nM
half-life at 5 μM (CYP2C9 [2]): > 45 min
IC50 (A2780): 410 nM
